Paper PMC11997985, “Synthesis and In Vitro Profiling of Psilocin Derivatives: Improved Stability and Synthetic Properties” (Journal of Medicinal Chemistry, 2025)

How the values were obtained:
[1] = Peak area in microsome suspension compared with compounds in solution; type: in vitro ADME, human; conditions: peak area 15 seconds after addition of NADPH versus same amount (125 nM) in H2O/EtOH
Protocol: were taken at three timepoints, and the degradation was compared to determine if it was dependent on NADPH. Compound 4k […]
without the addition of NADPH. […]
microsomes that need to be activated by a co -factor.
Table S5 Percent of peak area found in microsome suspension 15 seconds after the addition of NADPH in comparison with the same amount dissolved in H2O/EtOH
No. Area at 0.25 min. in Area in solution % found in microsomes/NADPH (125 nM) microsome
Comparison with compounds in solution. A comparison was made between the peak area of the compounds in solution with that obtained in the microsome suspension directly after the addition of NADPH (about 0.25 minutes) (Table S5). Before the addition of NADPH, the compounds are equilibrated in the microsome suspension for approximately five minutes. All compounds were prepared in solution by diluting a portion of the DMSO solutions with H2O/EtOH (75:25) to 125 nM (the final concentration of compounds for analysis in the microsome assay).
For the compounds where no results from the microsome assay could be reported due to low peak area (4d, 4e, 4f & 5), less than one percent of the expected peak area as compared with the area in solution was detected. […]
degrade rapidly before the addition of the co-factor after five minutes in incubation. For compounds 4g, 4h, 4i & 4j, which were […]
higher relative peak areas were found. […]
without NADPH was only found at 15% of the area seen in solution in the microsome suspension.

[2] = Chemical stability in 1.0 M NaHCO3 and 1.0 M HCl
[3] = Plasma stability in human plasma; type: in vitro ADME; conditions: for half-life at 1 μM / remaining at 12 s, 1 μM / remaining at 5 min, 1 μM / remaining at 10 min, 1 μM / remaining at 0.5 h, 1 μM / remaining at 1 h, 1 μM / remaining at 2 h, 1 μM / remaining at 4 h, 1 μM: human, pooled human plasma; for half-life at 1 μM: 37 °C, read-out: T ½ in human plasma; for remaining at 12 s, 1 μM: 0.2 min (first sample, reference); for remaining at 0.5 h, 1 μM: 30 min; for remaining at 1 h, 1 μM: 60 min; for remaining at 2 h, 1 μM: 120 min; for remaining at 4 h, 1 μM: 240 min; for degradation in human plasma: sampling at 5 min and later
Text: It should be noted that esterase-labile compounds are notoriously difficult to study in microsomal stability studies.[36]
Materials for experiments described in the supporting information (solubility) […]
Dimethylsulfoxide (DMSO) CHROMASOLV™ Plus, >99.7%
Acetonitrile (MeCN) LiChrosolv, hypergrade for LC-MS, Merck Chemicals
Formic acid (HCOOH) For LC-MS, Carlo-Erba
Water > 18MΩcm quality (Milli-Q, Millipore
Di-sodium-hydrogenphoshate dihydrate Merck
Sodium-dihydrogenphosphate monohydrate Merck
Autosampler Agilent 1260 Multisampler, G7167A
Gradient LC-pump Agilent 1260 Flexible Pump, G7104C
Analytical Flow 0.5 mL/min
Analytical column Luna® Omega 1.6 µm Polar C18 100Å, 50 x 2.1 mm
Injection volume 3.0 µL (15 µL for “high” injection of buffer sample) […]
Mobile phase A H2O/MeCN/Formic acid 95/5/0.1
Mobile phase B H2O/MeCN/Formic acid 5/95/0.1
Materials and analytical parameters for FT-ICR-MALDI-HRMS
The high-resolution mass spectrometry (HR-MS) experiments were performed using a MALDI-Fourier-transform ion cyclotron resonance (FTICR) (7T solariX XR-2ω, Bruker Daltonics) mass spectrometer equipped with a Smartbeam II 2 kHz laser. Briefly, a stock solution (1mg/ml) of the compound 5 was prepared and mixed 1:1 with a matrix solution containing DHB (40 mg/ml) in 50% ACN (0.02% TFA). 1 µl of the mixed solution was spotted onto MPTP MALDI target plate (Bruker Daltonics) and dried at room temperature. The instrument was tuned for optimal detection of small molecules (m/z 86–500) in positive polarity using the quadrature phase detection (QPD) (2ω) mode. The method was calibrated with red phosphorus over the mass range and DHB matrix ion [2M–2H2O+H]+ m/z 273.039364 was used as lock mass.
Incubation samples. 10 mM stock solutions of test compounds in DMSO were used to prepare 100 μM solutions by dilution in EtOH/water 25/75 (v/v). 6 μL of the 100 μM solution was spiked into 594 μL pre-warmed plasma at 37 °C giving a final concentration of 1 μM. The incubation tube was then mixed on a vortex. A sample (60 μL) was taken and added to an Eppendorf tube containing 180 μL acetonitrile. The tube was thoroughly mixed with a vortex. The precipitated sample was then treated with centrifugation (10.000 g, 10 minutes, 18 °C), 150 μL of the supernatant was mixed with 450 μL water directly into a LC-vial (glass). This step was repeated for every time point. The first time point was approximately taken 15-20 seconds after spiking.
Other timepoints were 5,10, 30, 60, 120, 240 minutes. Pre-precipitated samples. 594 μL of pre-warmed plasma was precipitated with 1800 μL ACN. 6 μL of the 100 μM solution was spiked into the precipitated plasma. 1 mL was removed and added to an Eppendorf tube. After a centrifugation step (10.000 g, 10 minutes, 18 °C), 150 μL of the supernatant was mixed with 450 μL water directly into a LC-vial (glass).
Metabolic stability in human microsomes
The assay was run at 37°C with a microsomal protein concentration of 0.5 mg/mL and a compound concentration of 1 μM in a 0.1 M potassium phosphate buffer at pH 7.4. The compounds were added to the microsome suspension whereafter the enzymatic reaction was initiated by the addition of the co-factor NADPH, giving a final NADPH concentration of 1 mM (Table 9). Samples […]
Plasma stability. The compounds were incubated separately at a concentration of 1 μM in +37°C pre-warmed pooled human plasma from commercial resources. The incubations were performed over a four-hour period with the first sample taken after addition of the compounds to plasma followed by a thorough mixing, with further sampling at 5, 10, and 30 minutes as well as 1,

Row | Structure (SMILES) | % found in microsome suspension [1] [%] | half-life at 5 mM ([2]; 1.0 M HCl) [h] | half-life at 5 mM ([2]; 1.0 M NaHCO3) [h] | half-life at 1 μM [3] [h] | remaining at 12 s, 1 μM [3] [%] | remaining at 5 min, 1 μM [3] [%] | remaining at 10 min, 1 μM [3] [%] | remaining at 0.5 h, 1 μM [3] [%] | remaining at 1 h, 1 μM [3] [%] | remaining at 2 h, 1 μM [3] [%] | remaining at 4 h, 1 μM [3] [%] | degradation in human plasma [3] | half-life at 24 h, 5 mM ([2]; 1.0 M HCl) [h] | half-life at 24 h, 5 mM ([2]; 1.0 M NaHCO3) [h]
1 | CN(C)CCc1c[nH]c2cccc(OCc3ccccc3)c12 [Compound 3, 4-Benzyloxy-N,N-dimethyltryptamine] | 88.5 | > 167 | > 167 | > 8 | 100 | 103 | 103 | 105 | 111 | 110 | 107 | no degradation was observed |  | 
2 | CC(=O)Oc1cccc2[nH]cc(CCN(C)C)c12.O=C(O)/C=C/C(=O)O [Compound 4a, 4-acetoxy-N,N-dimethyltryptamine] | 0.0 |  |  | < 0.0833 | 100 | 0.2 | 0.2 | 0.2 | 0.2 | 0.1 | 0.2 | almost no compound remained | 5 | 15
3 | CN(C)CCc1c[nH]c2cccc(OC(=O)C3CC3)c12.O=C(O)/C=C/C(=O)O [Compound 4g] | 58 |  |  | < 0.0833 | 100 | 1.5 | 0.1 | 0 | 0 | 0 | 0 | almost no compound remained | 100 | 183
4 | CCOC(=O)Oc1cccc2[nH]cc(CCN(C)C)c12.O=C(O)/C=C/C(=O)O [Compound 4i] | 7.1 | > 167 |  | < 0.0833 | 100 | 0 | 0 | 0 | 0 | 0 | 0 | almost no compound remained |  | 50
5 | CN(C)CCc1c[nH]c2cccc(OP(=O)(O)O)c12 [Compound 8, 4-phosphoryloxy-N,N-dimethyltryptamine, reference compound] | 81.5 | > 167 |  | > 8 | 100 | 135 |  | 130 | 122 | 127 | 122 | no degradation was observed |  | 250
